Source: patent US12655116B2, “Substituted isophthalic acid diamides” (Bayer Aktiengesellschaft, priority 2020, dated 2026)

What was measured:
ABUTH [1] = experiment: Pre-emergence herbicidal action against ABUTH; format: in vivo, Abutilon theophrasti; settings: for pest or weed control at 80 g/ha / pest or weed control at 20 g/ha: Abutilon theophrasti, 504 h; for pest or weed control at 20 g/ha: read-out: Pre-emergence action against ABUTH (herbicidal activity in percent)
How it was run: (§1)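 Seeds sown in sandy loam, soil-covered; compound sprayed on soil surface pre-emergence. Application: WP/EC, 600–800 l/ha, 0.2% wetting agent. Readout: visual % damage at 3 weeks.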

ALOMY [2] = experiment: Pre-emergence herbicidal action against ALOMY; format: in vivo, Alopecurus myosuroides; settings: 80 g/ha, pre-emergence, scored visually after 3 weeks vs untreated controls (100% = plants have died, 0% = like control plants)
How it was run: as §1

AMARE [3] = experiment: Pre-emergence herbicidal action against AMARE; format: in vivo, Amaranthus retroflexus; settings: for pest or weed control at 20 g/ha / pest or weed control at 80 g/ha: Amaranthus retroflexus, 504 h
How it was run: as §1

ECHCG [4] = experiment: Pre-emergence herbicidal action against ECHCG; format: in vivo, Echinochloa crus-galli; settings: 80 g/ha
How it was run: as §1

MATIN [5] = experiment: Pre-emergence herbicidal action against MATIN; format: in vivo, Matricaria inodora; settings: for pest or weed control at 20 g/ha / pest or weed control at 80 g/ha: Tripleurospermum inodorum, 504 h
How it was run: as §1

PHBPU [6] = experiment: Pre-emergence herbicidal action against PHBPU; format: in vivo, Pharbitis purpurea; settings: dosage 80 g/ha
How it was run: as §1

POLCO = experiment: Pre-emergence herbicidal action against POLCO; format: in vivo, Polygonum convolvulus; settings: dosage 80 g/ha; for pest or weed control at 80 g/ha: Fallopia convolvulus, 504 h
How it was run: as §1

SETVI [7] = experiment: Pre-emergence herbicidal action against SETVI; format: in vivo, Setaria viridis
How it was run: as §1

VIOTR [8] = experiment: Pre-emergence herbicidal action against VIOTR; format: in vivo, Viola tricolor
How it was run: as §1

DIGSA = experiment: Pre-emergence herbicidal action against DIGSA; format: in vivo, Digitaria sanguinalis
How it was run: as §1

ABUTH [9] = experiment: Post-emergence herbicidal action against ABUTH; format: in vivo, Abutilon theophrasti; settings: visual assessment about 3 weeks after treatment vs untreated controls
How it was run: (§2)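 Sandy loam, greenhouse; treatment 2–3 weeks after sowing, one-leaf stage. Aqueous suspension or emulsion from WP/EC sprayed on foliage (600–800 l/ha, 0.2% wetting agent). Readout: visual % action, ~3 weeks.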

AMARE [10] = experiment: Post-emergence herbicidal action against AMARE; format: in vivo, Amaranthus retroflexus; settings: 20 g/ha, visual assessment about 3 weeks after treatment, 100% = plants have died, 0% = like control plants; for pest or weed control at 20 g/ha: Amaranthus retroflexus, 504 h
How it was run: as §2

ECHCG [11] = experiment: Post-emergence herbicidal action against ECHCG; format: in vivo, Echinochloa crus-galli
How it was run: as §2

VIOTR [12] = experiment: Post-emergence herbicidal action against VIOTR; format: in vivo, Viola tricolor
How it was run: as §2

VERPE [13] = experiment: Pre-emergence herbicidal action against VERPE; format: in vivo, Veronica persica; settings: Veronica persica, 504 h; for pest or weed control at 80 g/ha: dosage 80 g/ha
How it was run: as §1

AVEFA = experiment: Pre-emergence herbicidal action against AVEFA; format: in vivo, Avena fatua; settings: Avena fatua, 504 h, pre-emergence
How it was run: as §1

ALOMY [14] = experiment: Post-emergence herbicidal action against ALOMY; format: in vivo, Alopecurus myosuroides; settings: Alopecurus myosuroides, 504 h, visual assessment about 3 weeks after treatment vs untreated controls
How it was run: as §2

MATIN [15] = experiment: Post-emergence herbicidal action against MATIN; format: in vivo, Matricaria inodora; settings: Tripleurospermum inodorum, 504 h
How it was run: as §2

PHBPU [16] = experiment: Post-emergence herbicidal action against PHBPU; format: in vivo, Pharbitis purpurea; settings: Ipomoea purpurea, 504 h
How it was run: as §2

SETVI [17] = experiment: Post-emergence herbicidal action against SETVI; format: in vivo, Setaria viridis; settings: Setaria viridis, 504 h
How it was run: as §2

VERPE [18] = experiment: Post-emergence herbicidal action against VERPE; format: in vivo, Veronica persica; settings: Veronica persica, 504 h
How it was run: as §2

[19] = 80 g/ha, scored visually after 3 weeks vs untreated controls (100% = plants have died, 0% = like control plants)
[20] = dosage 20 g/ha, scored visually after 3 weeks vs untreated controls, 100% = plants have died, 0% = like control plants
[21] = 20 g/ha, scored visually after 3 weeks vs untreated controls, 100% = plants have died, 0% = like control plants
[22] = 80 g/ha, scored visually after 3 weeks vs untreated controls, 100% = plants have died, 0% = like control plants

Cn1nnnc1NC(=O)c1ccc(C(F)(F)F)c(C(=O)NC2CCC2)c1Cl [Example 1-146]
Pre-emergence action against ABUTH (herbicidal activity) (ABUTH [1]; [19]): 100%
Pre-emergence action against ABUTH (herbicidal activity in percent) (ABUTH [1]; [20]): 100%
Pre-emergence action against ALOMY (herbicidal activity) (ALOMY [2]): 90%
Pre-emergence action against AMARE in % (AMARE [3]; [21]): 100%
Pre-emergence action against AMARE in % (AMARE [3]; [19]): 100%
Pre-emergence action against ECHCG in % (ECHCG [4]): 100%
Pre-emergence action against MATIN in % (MATIN [5]; dosage 20 g/ha): 100%
Pre-emergence action against MATIN in % (MATIN [5]; dosage 80 g/ha): 100%
Pre-emergence action against PHBPU in % (PHBPU [6]): 80%
Pre-emergence action against POLCO in % (POLCO): 80%
Pre-emergence action against SETVI in % (SETVI [7]; dosage 80 g/ha): 80%
Pre-emergence action against VIOTR in % (VIOTR [8]; dosage 80 g/ha): 100%
Pre-emergence action against DIGSA in % (DIGSA; dosage 20 g/ha): 100%
Pre-emergence action against DIGSA in % (DIGSA; dosage 80 g/ha): 100%
Post-emergence action against ABUTH in % (ABUTH [9]; dosage 20 g/ha): 80%
Post-emergence action at 20 g/ha against AMARE in % (AMARE [10]): 100%
Post-emergence action against ECHCG in % (ECHCG [11]; dosage 20 g/ha): 80%
Post-emergence action against VIOTR in % (VIOTR [12]; 5 g/ha): 80%
Post-emergence action against VIOTR in % (VIOTR [12]; 20 g/ha): 100%

Cn1nnnc1NC(=O)c1ccc(C(F)F)c(C(=O)Nc2ccccc2)c1Cl [Example 1-161]
pest or weed control at 80 g/ha (ABUTH [1]; [19]): 90%
pest or weed control at 20 g/ha (ABUTH [1]; [20]): 80%
pest or weed control at 20 g/ha (AMARE [3]; [21]): 100%
pest or weed control at 80 g/ha (AMARE [3]; [22]): 100%
pest or weed control at 20 g/ha (MATIN [5]; dosage 20 g/ha): 90%
pest or weed control at 80 g/ha (MATIN [5]; dosage 80 g/ha): 100%
pest or weed control at 80 g/ha (PHBPU [6]; Ipomoea purpurea, 504 h): 80%
pest or weed control at 80 g/ha (POLCO): 80%
pest or weed control at 20 g/ha (VERPE [13]; dosage 20 g/ha): 80%
pest or weed control at 80 g/ha (VERPE [13]): 90%
pest or weed control at 20 g/ha (AMARE [10]): 90%

Cc1c(C(=O)Nc2nnnn2C)ccc(C(F)F)c1C(=O)NC(C)C [Example 1-346]
pest or weed control at 80 g/ha (ABUTH [1]; [19]): 100%
pest or weed control at 20 g/ha (ABUTH [1]; [20]): 90%
pest or weed control at 80 g/ha (ALOMY [2]; Alopecurus myosuroides, 504 h): 90%
pest or weed control at 20 g/ha (AMARE [3]; [21]): 100%
pest or weed control at 80 g/ha (AMARE [3]; [22]): 100%
pest or weed control at 80 g/ha (AVEFA; 80 g/ha): 80%
pest or weed control at 20 g/ha (AVEFA; 20 g/ha, scored visually after 3 weeks, 100% = plants have died, 0% = like control plants): 80%
pest or weed control at 80 g/ha (ECHCG [4]; Echinochloa crus-galli, 504 h): 90%
pest or weed control at 20 g/ha (MATIN [5]; dosage 20 g/ha): 90%
pest or weed control at 80 g/ha (MATIN [5]; dosage 80 g/ha): 100%
pest or weed control at 80 g/ha (POLCO): 80%
pest or weed control at 20 g/ha (SETVI [7]; Setaria viridis, 504 h, dosage 20 g/ha): 100%
pest or weed control at 80 g/ha (SETVI [7]; Setaria viridis, 504 h, dosage 80 g/ha): 100%
pest or weed control at 80 g/ha (VERPE [13]): 80%
pest or weed control at 20 g/ha (VIOTR [8]; Viola tricolor, 504 h, dosage 20 g/ha): 80%
pest or weed control at 80 g/ha (VIOTR [8]; Viola tricolor, 504 h, dosage 80 g/ha): 100%
pest or weed control at 5 g/ha (ABUTH [9]; Abutilon theophrasti, 504 h, dosage 5 g/ha): 80%
pest or weed control at 20 g/ha (ABUTH [9]; Abutilon theophrasti, 504 h, dosage 20 g/ha): 100%
pest or weed control at 5 g/ha (ALOMY [14]; dosage 5 g/ha): 80%
pest or weed control at 20 g/ha (ALOMY [14]; dosage 20 g/ha): 90%
pest or weed control at 20 g/ha (AMARE [10]): 100%
pest or weed control at 5 g/ha (ECHCG [11]; Echinochloa crus-galli, 504 h, dosage 5 g/ha): 80%
pest or weed control at 20 g/ha (ECHCG [11]; Echinochloa crus-galli, 504 h, dosage 20 g/ha): 90%
pest or weed control at 5 g/ha (MATIN [15]; dosage 5 g/ha): 80%
pest or weed control at 20 g/ha (MATIN [15]; dosage 20 g/ha): 90%
pest or weed control at 5 g/ha (PHBPU [16]; dosage 5 g/ha): 80%
pest or weed control at 20 g/ha (PHBPU [16]; dosage 20 g/ha): 90%
pest or weed control at 5 g/ha (SETVI [17]; dosage 5 g/ha): 100%
pest or weed control at 20 g/ha (SETVI [17]; dosage 20 g/ha): 100%
pest or weed control at 5 g/ha (VERPE [18]; 5 g/ha): 80%
pest or weed control at 20 g/ha (VERPE [18]; 20 g/ha): 80%
pest or weed control at 5 g/ha (VIOTR [12]; Viola tricolor, 504 h, 5 g/ha): 90%
pest or weed control at 20 g/ha (VIOTR [12]; Viola tricolor, 504 h, 20 g/ha): 100%
